Measurements published in the CheMixHub viscosity set.

Test: xn = mol fraction of the nth substance listed

COCCOCCOCCOC + CCCOC(C)=O
viscosity [mPa·s], 101.3 kPa
Details	298.15 K	308.15 K	318.15 K
x1 = 0.005	0.558	0.492	0.442
x1 = 0.0351	0.589	0.517	0.465
x1 = 0.0513	0.607	0.532	0.476
x1 = 0.0859	0.643	0.562	0.503
x1 = 0.1416	0.709	0.613	0.544
x1 = 0.1846	0.757	0.652	0.577
x1 = 0.2654	0.857	0.734	0.647
x1 = 0.3185	0.922	0.785	0.683
x1 = 0.3767	1.009	0.848	0.733
x1 = 0.426	1.078	0.902	0.784
x1 = 0.5278	1.224	1.019	0.862
x1 = 0.5868	1.313	1.086	0.921
x1 = 0.627	1.388	1.141	–
x1 = 0.6327	–	–	0.964
x1 = 0.69	1.486	1.22	1.025
x1 = 0.7402	1.567	1.282	1.077
x1 = 0.8031	1.67	1.365	1.137
x1 = 0.8451	1.744	1.427	1.177
x1 = 0.8711	1.784	1.472	1.207
x1 = 0.9467	1.9	1.542	1.276
x1 = 0.9582	1.91	1.552	1.285
x1 = 0.979	1.939	1.513	1.302

CC(C)(C)O + CCO
303.2 K, 101.33 kPa
Details	viscosity [mPa·s]
x2 = 0.05	3.256
x2 = 0.1	3.156
x2 = 0.15	3.039
x2 = 0.2	2.914
x2 = 0.3	2.645
x2 = 0.4	2.36
x2 = 0.5	2.07
x2 = 0.6	1.793
x2 = 0.7	1.548
x2 = 0.8	1.336
x2 = 0.85	1.239
x2 = 0.9	1.147
x2 = 0.95	1.059

CN(CCO)CCO + CCO
313 K, 101.33 kPa
Details	viscosity [mPa·s]
x1 = 0.0079	0.832
x1 = 0.02	0.888
x1 = 0.0434	0.998
x1 = 0.216	2.132
x1 = 0.2986	2.967
x1 = 0.3977	4.196
x1 = 0.5237	7.05
x1 = 0.5978	9.003
x1 = 0.7028	12.92
x1 = 0.8085	17.79
x1 = 0.908	23.88

C[NH+](CCO)CCO.O=C[O-] + CCO
viscosity [mPa·s], 101 kPa
Details	293.15 K	303.15 K	313.15 K	323.15 K
x1 = 0.0643	32.41	17.44	8.445	5.799
x1 = 0.1074	52.86	25.09	13.49	9.254
x1 = 0.2133	106.7	51.03	27.25	18.63
x1 = 0.3117	159.3	78.2	41.19	28.12
x1 = 0.417	218.9	107.6	57.4	39.18
x1 = 0.5197	281.6	137.2	74.93	51.06
x1 = 0.6178	348.2	168.6	93.84	63.73
x1 = 0.7224	434.6	211.7	118.3	79.69
x1 = 0.8275	534.4	263.6	145.7	97.16
x1 = 0.9161	630.3	312.3	170	112.2
x1 = 0.95	665	328.9	178.8	117.6

Oc1ccc2ccccc2c1 + CCO
viscosity [mPa·s], 101 kPa
Details	x1 = 0.03	x1 = 0.06	x1 = 0.09	x1 = 0.12	x1 = 0.15
293.15 K	1.428	1.684	1.969	2.28	2.641
303.15 K	1.162	1.351	1.588	1.836	2.093
313.15 K	0.975	1.125	1.305	1.487	1.669
323.15 K	0.801	0.92	1.063	1.217	1.374

COCCOCCOCCO + CCOC(=O)OCC
298.15 K, 101.33 kPa
Details	viscosity [mPa·s]
x1 = 0.0084	0.762
x1 = 0.017	0.775
x1 = 0.0385	0.809
x1 = 0.0758	0.874
x1 = 0.0923	0.905
x1 = 0.1232	0.967
x1 = 0.1538	1.035
x1 = 0.1917	1.126
x1 = 0.2331	1.242
x1 = 0.2893	1.408
x1 = 0.326	1.528
x1 = 0.3668	1.676
x1 = 0.41	1.845
x1 = 0.4336	1.944
x1 = 0.4506	2.027
x1 = 0.4939	2.224
x1 = 0.5117	2.316
x1 = 0.5615	2.578
x1 = 0.603	2.819
x1 = 0.676	3.303
x1 = 0.7411	3.785
x1 = 0.8077	4.364
x1 = 0.8846	5.15
x1 = 0.925	5.608

COCCOCCOCCOC + CCOC(=O)OCC
298.15 K, 101.33 kPa
Details	viscosity [mPa·s]
x1 = 0.0103	0.759
x1 = 0.0175	0.767
x1 = 0.0246	0.775
x1 = 0.0367	0.788
x1 = 0.0576	0.813
x1 = 0.0787	0.837
x1 = 0.0958	0.856
x1 = 0.119	0.879
x1 = 0.1509	0.913
x1 = 0.1983	0.966
x1 = 0.2499	1.021
x1 = 0.3024	1.081
x1 = 0.3233	1.105
x1 = 0.3543	1.142
x1 = 0.4034	1.199
x1 = 0.4614	1.268
x1 = 0.5022	1.324
x1 = 0.552	1.386
x1 = 0.6112	1.463
x1 = 0.6561	1.519
x1 = 0.7044	1.583
x1 = 0.7371	1.624
x1 = 0.7905	1.693
x1 = 0.8464	1.764
x1 = 0.9175	1.85
x1 = 0.951	1.894

COCCOCCOCCO + CCOC(C)(C)C
viscosity [mPa·s], 101 kPa
Details	293.15 K	298.15 K	303.15 K
x2 = 0.0504	6.269	5.479	4.777
x2 = 0.1	5.458	4.8	4.209
x2 = 0.1509	4.734	4.186	3.689
x2 = 0.2025	4.101	3.643	3.225
x2 = 0.2489	3.607	3.216	2.859
x2 = 0.3007	3.129	2.801	2.501
x2 = 0.3511	2.729	2.453	2.199
x2 = 0.3999	2.394	2.159	1.944
x2 = 0.4508	2.091	1.893	1.712
x2 = 0.5001	1.837	1.669	1.516
x2 = 0.5493	1.616	1.475	1.345
x2 = 0.6	1.418	1.3	1.192
x2 = 0.6503	1.248	1.149	1.058
x2 = 0.6998	1.102	1.019	0.943
x2 = 0.7491	0.974	0.906	0.842
x2 = 0.7999	0.86	0.803	0.751
x2 = 0.8509	0.759	0.712	0.669
x2 = 0.9001	0.674	0.635	0.6
x2 = 0.9498	0.599	0.566	0.536
